Assay results reported in article PMC10215199 (Antioxidants, 2023).
Counter-ions that a name gives are not always drawn.

What was measured:
recombinant human MAO-A = target: T1, recombinant human MAO-A (Homo sapiens, UniProt P21397); assay: Monoamine oxidase-A inhibition assay (Amplex red fluorescence); format: biochemical; details: ±sem; for inhibition at 1 µM: single dose concentration of 1 µM, NI = no measured inhibition, read-out: % Inhibition MAO-A; for MAO-A % Inhibition / inhibition at 100 µM: single dose concentration of 100 µM; for MAO-A % Inhibition: 100 µM; for inhibition at 100 µM: read-out: MAO-A % Inhibition; for IC50: read-out: MAO-A IC50
T1 sequence (P21397 1-527): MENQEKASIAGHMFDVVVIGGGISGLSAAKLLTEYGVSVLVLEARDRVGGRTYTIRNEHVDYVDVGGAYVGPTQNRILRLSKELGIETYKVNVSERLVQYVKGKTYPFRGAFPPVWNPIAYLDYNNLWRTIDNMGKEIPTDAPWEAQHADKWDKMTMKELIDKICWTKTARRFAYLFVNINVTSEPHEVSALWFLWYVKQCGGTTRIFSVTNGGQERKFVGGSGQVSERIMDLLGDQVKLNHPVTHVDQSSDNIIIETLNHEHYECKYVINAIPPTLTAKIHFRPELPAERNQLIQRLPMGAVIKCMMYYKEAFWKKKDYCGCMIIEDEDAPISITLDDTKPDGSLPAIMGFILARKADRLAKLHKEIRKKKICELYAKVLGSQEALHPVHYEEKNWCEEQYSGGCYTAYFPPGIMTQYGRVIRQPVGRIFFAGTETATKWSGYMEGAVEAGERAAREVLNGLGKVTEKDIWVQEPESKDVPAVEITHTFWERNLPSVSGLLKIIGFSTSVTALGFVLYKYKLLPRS
Experimental: Two isoforms of MAOs, namely MAO-A and MAO-B, are expressed in CNS, showing different substrate specificity. Consequently, different pharmacological effects can be elicited depending on the inhibited MAO isoform. Therefore, the prepared O^6-aminoalkyl-hispidol analogs were evaluated against both recombinant human MAO-A and MAO-B isoforms following the well-established spectrophotometric method.
2. Biological evaluations
2.1. In vitro assay of human monoamine oxidases inhibition
The MAO activity was quantified by measuring fluorescence intensity evoked by Amplex red reaction in which Amplex red reacts with hydrogen peroxide from the MAO reaction to produce highly fluorescent resorufin. The test compound in DMSO (final concentration: 1 nM – 10 μM or 10 nM – 100 μM ) and hMAO enzyme (Sigma Aldrich, St. Louis, MO, USA) in 50 mM sodium phosphate buffer (pH 7.4, final protein amount: ~1.25 μg of MAO-A/well and 2.5 μg of MAO-B/well) were loaded on 96-well black plate and incubated for 15 min at 37 °C. Then working solution of 200 μM Amplex Red (Cayman, Ann Arbor, MI, USA), 1 U/mL horseradish peroxidase (Sigma-Aldrich) and 1 mM substrate (p-tyramine for MAO-A, benzylamine for MAO-B, Sigma-Aldrich) in 50 mM sodium phosphate buffer (pH 7.4) was added and incubated for 20 min at 37 °C in the dark. The fluorescence was measured using a microplate reader (SpectraMax®i3, Molecular Device, San Jose, CA, USA) with an excitation at 545 nm and an emission at 590 nm. […]
(§1) of compounds were determined as the mean ± S.E.M. in triplicate from the dose-response inhibition curves using SigmaPlot® 13.0.

recombinant human MAO-B = target: T2, recombinant human MAO-B (Homo sapiens, UniProt P27338); assay: biochemical; details: for inhibition at 10 µM: single dose concentration of 10 µM; for inhibition at 10 µM / IC50: ±sem; for IC50: five doses
T2 construct: purchased Sigma Aldrich
T2 sequence (P27338 1-520): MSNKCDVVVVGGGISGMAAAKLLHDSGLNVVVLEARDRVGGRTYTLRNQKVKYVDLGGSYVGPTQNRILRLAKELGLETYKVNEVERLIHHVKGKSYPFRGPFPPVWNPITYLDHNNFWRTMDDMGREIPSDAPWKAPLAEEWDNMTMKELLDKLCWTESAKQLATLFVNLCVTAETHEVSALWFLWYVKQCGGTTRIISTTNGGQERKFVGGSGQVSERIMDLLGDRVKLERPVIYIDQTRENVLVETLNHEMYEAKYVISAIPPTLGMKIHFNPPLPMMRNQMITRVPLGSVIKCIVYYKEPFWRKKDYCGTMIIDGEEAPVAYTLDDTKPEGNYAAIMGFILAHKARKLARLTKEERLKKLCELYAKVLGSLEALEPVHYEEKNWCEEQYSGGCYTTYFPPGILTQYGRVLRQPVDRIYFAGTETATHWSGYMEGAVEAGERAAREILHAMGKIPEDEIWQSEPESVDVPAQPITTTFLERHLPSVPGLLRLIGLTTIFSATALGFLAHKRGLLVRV

[1] = target: T3, acetylcholinesterase (AChE) (Mus musculus, UniProt P21836); assay: Acetylcholinesterase inhibition assay (Ellman, mouse whole brain homogenate); format: biochemical; details: ±SD
T3 construct: The supernatant obtained was used as a source of enzyme for; from tissue; host or cells: whole brain of male ICR mice, supernatant of the homogenate
T3 sequence (P21836 32-614): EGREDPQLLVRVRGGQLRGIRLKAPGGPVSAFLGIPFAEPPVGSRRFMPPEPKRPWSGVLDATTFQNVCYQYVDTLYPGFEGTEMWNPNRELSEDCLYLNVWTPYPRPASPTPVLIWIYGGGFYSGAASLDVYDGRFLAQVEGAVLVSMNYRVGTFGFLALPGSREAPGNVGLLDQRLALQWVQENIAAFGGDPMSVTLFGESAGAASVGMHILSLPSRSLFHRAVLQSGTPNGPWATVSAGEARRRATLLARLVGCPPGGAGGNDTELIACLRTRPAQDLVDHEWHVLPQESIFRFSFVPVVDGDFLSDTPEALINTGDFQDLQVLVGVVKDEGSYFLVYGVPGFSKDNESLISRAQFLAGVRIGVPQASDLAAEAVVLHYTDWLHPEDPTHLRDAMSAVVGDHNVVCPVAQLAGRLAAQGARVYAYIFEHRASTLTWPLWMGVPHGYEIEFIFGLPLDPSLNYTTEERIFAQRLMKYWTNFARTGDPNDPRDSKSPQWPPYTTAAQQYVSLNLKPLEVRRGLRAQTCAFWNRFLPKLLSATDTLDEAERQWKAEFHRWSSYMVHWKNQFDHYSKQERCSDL
Experimental: as §1
2.2. In vitro acetylcholinesterase inhibition assay
(Eyela, Japan) containing 50 volumes of phosphate buffer (pH 8.0, 0.1 M), and then centrifuged at 14,000 rpm for 20 min at 4 °C. The supernatant obtained was used as a source of enzyme for the assay. Each drug was initially dissolved in dimethyl sulfoxide (DMSO) and diluted to various concentrations immediately before use. An aliquot of diluted drug solution was then mixed wit h 640 μL of phosphate buffer (0.1 M, pH 8.0), 25 μL of buffered Ellman’s reagent (10 mM 5,5′- dithio-bis(2-nitrobenzoic acid) and 15 mM sodium bicarbonate), and the enzyme source (100 μL) and pre-incubated at room temperature for 10 min. Then 5 μL of acetylthiocholine iodide solution (75 mM) was added to this mixture and mixed. Absorbance was measured at 410 nm after 10 min for the reaction adding 5 μL of acetylthiocholine iodide solution (75 mM) and to the reaction mixtures (OPTIZEN 2120UV, Mecasys Co. Ltd, Korea).

SMILES | inhibition at 1 µM (recombinant human MAO-A) | inhibition at 10 µM (recombinant human MAO-B) | also measured
COc1ccc(OC)c(/C=C2\Oc3cc(OCCCN4CCCC4)ccc3C2=O)c1 [Compound 3ba] | < 0% | 20.3 ± 0.49% | 
COc1cc(/C=C2\Oc3cc(OCCN4CCCC4)ccc3C2=O)cc(OC)c1 [Compound 3at] | < 0% | 36.8 ± 0.44% | 
COc1ccc(/C=C2\Oc3cc(OCCN4CCCCC4)ccc3C2=O)cc1OC [Compound 3ap] | < 0% | 50.81 ± 0.44% | MAO-A % Inhibition (recombinant human MAO-A): 22.52 ± 0.04%; inhibition at 100 µM (recombinant human MAO-A): ~23%; IC50 (recombinant human MAO-A): > 100 µM; IC50 (recombinant human MAO-B): 10.18 ± 0.099 µM
COc1ccc(OC)c(/C=C2\Oc3cc(OCCN4CCCC4)ccc3C2=O)c1 [Compound 3ax] | < 0% | 65.05 ± 0.43% | inhibition at 100 µM (recombinant human MAO-A): ~28%; IC50 (recombinant human MAO-A): > 100 µM; IC50 (recombinant human MAO-B): 3.16 ± 0.036 µM
COc1ccccc1/C=C1\Oc2cc(OCCCN3CCCC3)ccc2C1=O [Compound 3ac] | 1.31 ± 0.82% | 32.27 ± 0.23% | 
COc1ccc(/C=C2\Oc3cc(OCCCCCN4CCCCC4)ccc3C2=O)cc1OC [Compound 3as, (Z)-2-(3,4-Dimethoxybenzylidene)-6-(5-(piperidin-1-yl)pentoxy)benzofuran-3(2H)-one hydrochloride] | < 0% | 4.76 ± 1.91% | 
COc1cc(/C=C2\Oc3cc(OCCN4CCCCC4)ccc3C2=O)cc(OC)c1OC [Compound 3bd] | < 0% | 27.9 ± 0.36% | 
COc1ccc(/C=C2\Oc3cc(OCCCCN4CCCCC4)ccc3C2=O)cc1OC [Compound 3ar] | < 0% | 3.89 ± 1.63% | 
COc1ccccc1/C=C1\Oc2cc(OCCN3CCCC3)ccc2C1=O [Compound 3ab] | < 0% | 43 ± 0.55% | 
CCN(CC)CCCOc1ccc2c(c1)O/C(=C\c1cccc(OC)c1)C2=O [Compound 3ae] | < 0% | 18.8 ± 0.45% | 
COc1ccc(/C=C2\Oc3cc(OCCCN4CCCCC4)ccc3C2=O)cc1OC [Compound 3aq] | < 0% | 4.51 ± 1.3% | 
COc1ccc(/C=C2\Oc3cc(OCCCCN4CCCC4)ccc3C2=O)cc1 [Compound 3al] | < 0% | 49.8 ± 0.02% | MAO-A % Inhibition (recombinant human MAO-A): 14.89 ± 3.46%; inhibition at 100 µM (recombinant human MAO-A): ~15%; IC50 (recombinant human MAO-A): > 100 µM; IC50 [1]: 1.42 ± 0.09 µM; MAO-B Selectivity Index (recombinant human MAO-B; calculated from MAO-A and MAO-B IC50 values): >12; IC50 (recombinant human MAO-B): 8.65 ± 0.196 µM
COc1ccc(/C=C2\Oc3cc(OCCCN4CCCC4)ccc3C2=O)c(OC)c1 [Compound 3az] | < 0% | 35.87 ± 0.17% | 
COc1cccc(/C=C2\Oc3cc(OCCN4CCCC4)ccc3C2=O)c1OC [Compound 3av] | 12.6 ± 0.32% | 2.61 ± 1.78% | 
COc1cc(/C=C2\Oc3cc(OCCCN4CCCC4)ccc3C2=O)cc(OC)c1 [Compound 3au] | < 0% | 21.2 ± 0.3% | 
COc1cccc(/C=C2\Oc3cc(OCCCN4CCCC4)ccc3C2=O)c1 [Compound 3ag] | 12.2 ± 1.05% | 16.99 ± 0.11% | 
COc1ccc(/C=C2\Oc3cc(OCCN4CCCC4)ccc3C2=O)c(OC)c1OC [Compound 3bb] | < 0% | 23.9 ± 0.81% | 
COc1cccc(/C=C2\Oc3cc(OCCN4CCCC4)ccc3C2=O)c1 [Compound 3af] | < 0% | 39.1 ± 0.96% | 
COc1cccc(/C=C2\Oc3cc(OCCN4CCOCC4)ccc3C2=O)c1 [Compound 3ai] | 4.1 ± 0.48% | 27.9 ± 0.37% | 
COc1ccc(/C=C2\Oc3cc(OCCN4CCCC4)ccc3C2=O)c(OC)c1 [Compound 3aw] | 12.7 ± 0.54% | 41.6 ± 1.03% | 
CCN(CC)CCOc1ccc2c(c1)O/C(=C\c1cccc(OC)c1)C2=O [Compound 3ad] | < 0% | 46.09 ± 0.11% | 
COc1ccc(/C=C2\Oc3cc(OCCN4CCCCC4)ccc3C2=O)cc1 [Compound 3am] | 0.92 ± 0.83% | 20.6 ± 0.79% | 
COc1ccc(/C=C2\Oc3cc(OCCN4CCCC4)ccc3C2=O)cc1 [Compound 3aj] | 3.26 ± 0.75% | 39.26 ± 0.03% | 
COc1ccc(/C=C2\Oc3cc(OCCCN4CCCC4)ccc3C2=O)cc1OC [Compound 3ao] | < 0% | 39.2 ± 0.58% | 
COc1ccc(/C=C2\Oc3cc(OCCCN4CCCC4)ccc3C2=O)cc1 [Compound 3ak] | 9.83 ± 0.64% | 45.64 ± 0.08% | 
COc1cccc(/C=C2\Oc3cc(OCCCN4CCCCC4)ccc3C2=O)c1 [Compound 3ah] | < 0% | 18.1 ± 1.83% | 
COc1cccc(/C=C2\Oc3cc(OCCCN4CCCC4)ccc3C2=O)c1OC [Compound 3ay] | < 0% | 4.37 ± 0.9% | 
COc1ccc(/C=C2\Oc3cc(OCCN4CCCC4)ccc3C2=O)cc1OC [Compound 3an] | < 0% | 48.1 ± 1.46% | 
